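In this assay, cells in 96-well plates receive the compound at five concentrations for 48 hours. Endpoints are linearly interpolated between the surrounding concentrations. GI50 marks 50% less growth.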 The source made the active and inactive calls. No stated cut-off is given here; in the data, active = GI50 up to about 1.1 µM and inactive = higher.
How the values were obtained:
Experiment in all cases: NCI anticancer screen, dose series, 48 h
OVCAR-5 = tested on: OVCAR-5
HCC 2998 = tested on: HCC 2998
UO-31 = tested on: UO-31
MDA-MB-231 = tested on: MDA-MB-231
OVCAR-4 = tested on: OVCAR-4
NCI-H226 = tested on: NCI-H226
SF-268 = tested on: SF-268
SK-MEL-28 = tested on: SK-MEL-28
SN12C = tested on: SN12C
HOP-62 = tested on: HOP-62
OVCAR-3 = tested on: OVCAR-3
SK-MEL-2 = tested on: SK-MEL-2
IGROV-1 = tested on: IGROV-1
SW-620 = tested on: SW-620
OVCAR-8 = tested on: OVCAR-8
HT-29 = tested on: HT-29
DU-145 = tested on: DU-145
NCI/ADR-RES = tested on: NCI/ADR-RES
SNB-19 = tested on: SNB-19
T47D = tested on: T47D

SMILES	GI50 (OVCAR-5)	GI50 (HCC 2998)	GI50 (UO-31)	GI50 (MDA-MB-231)	GI50 (OVCAR-4)	GI50 (NCI-H226)	GI50 (SF-268)	GI50 (SK-MEL-28)	GI50 (SN12C)	GI50 (HOP-62)	GI50 (OVCAR-3)	GI50 (SK-MEL-2)	GI50 (IGROV-1)	GI50 (SW-620)	GI50 (OVCAR-8)	GI50 (HT-29)	GI50 (DU-145)	GI50 (NCI/ADR-RES)	GI50 (SNB-19)	GI50 (T47D)
COc1ccc2c(c1)c1nn(CCN(C)C)c3ccc4c(=O)n(CCN(C)C)c(=O)n2c4c13	< 0.0223 µM (active)	< 0.01 µM (active)	0.0255 µM (active)	0.0211 µM (active)	< 0.01 µM (active)	0.125 µM (active)	< 0.01 µM (active)	0.22 µM (active)	< 0.0234 µM (active)	< 0.01 µM (active)	0.018 µM (active)	0.0323 µM (active)	< 0.01 µM (active)	< 0.01 µM (active)	< 0.01 µM (active)	< 0.01 µM (active)	0.0135 µM (active)	0.0148 µM (active)	0.0224 µM (active)	0.144 µM (active)
CCCCCC(=O)Nc1[nH]nnc1C#N	> 100 µM (inactive)	> 100 µM (inactive)	> 100 µM (inactive)	> 100 µM (inactive)	> 100 µM (inactive)	> 100 µM (inactive)	> 100 µM (inactive)	> 100 µM (inactive)	> 100 µM (inactive)	> 100 µM (inactive)	> 100 µM (inactive)	> 100 µM (inactive)	> 100 µM (inactive)	> 100 µM (inactive)	> 100 µM (inactive)	> 100 µM (inactive)	> 100 µM (inactive)	> 100 µM (inactive)	> 100 µM (inactive)	> 100 µM (inactive)
NC(=O)c1nnsc1N/N=C/c1ccc([N+](=O)[O-])cc1	> 100 µM (inactive)	> 100 µM (inactive)	77.1 µM (inactive)	> 100 µM (inactive)	> 100 µM (inactive)	> 100 µM (inactive)	> 100 µM (inactive)	> 100 µM (inactive)	> 100 µM (inactive)	> 100 µM (inactive)	55.2 µM (inactive)	> 100 µM (inactive)	> 100 µM (inactive)	> 100 µM (inactive)	> 100 µM (inactive)	> 100 µM (inactive)	> 100 µM (inactive)	> 100 µM (inactive)	> 100 µM (inactive)	> 100 µM (inactive)
C[C@@H]1O[C@@H]2OCC[C@@H]2C2=C1C(=O)c1ccccc1C2=O	1.81 µM (inactive)	17.9 µM (inactive)	10.8 µM (inactive)	33.7 µM (inactive)	4.14 µM (inactive)	26.7 µM (inactive)	4.97 µM (inactive)	13.9 µM (inactive)	6.35 µM (inactive)	17.3 µM (inactive)	3.08 µM (inactive)	11 µM (inactive)	1.98 µM (inactive)	4.04 µM (inactive)	6.85 µM (inactive)	40 µM (inactive)	9.1 µM (inactive)	2.02 µM (inactive)	18.7 µM (inactive)	5.12 µM (inactive)
COc1c2ccccc2c(OC)c2nc(C)ccc12	> 100 µM (inactive)	> 100 µM (inactive)	> 100 µM (inactive)	> 100 µM (inactive)	> 100 µM (inactive)	> 100 µM (inactive)	> 100 µM (inactive)	> 100 µM (inactive)	> 100 µM (inactive)	> 100 µM (inactive)	> 100 µM (inactive)	> 100 µM (inactive)	> 100 µM (inactive)	> 100 µM (inactive)	> 100 µM (inactive)	49.3 µM (inactive)	> 100 µM (inactive)	> 100 µM (inactive)	> 100 µM (inactive)	> 100 µM (inactive)
NC(CS)C(=O)NCCNc1ccc(NCCNC(=O)C(N)CS)c2c1C(=O)c1c(O)ccc(O)c1C2=O (stereo not given)	0.481 µM (active)	0.225 µM (active)	0.0313 µM (active)	0.433 µM (active)	0.204 µM (active)	0.00847 µM (active)	0.0246 µM (active)	0.628 µM (active)	0.00836 µM (active)	0.00361 µM (active)	0.405 µM (active)	0.427 µM (active)	0.219 µM (active)	0.0292 µM (active)	0.0225 µM (active)	0.0897 µM (active)	0.0261 µM (active)	0.126 µM (active)	0.0188 µM (active)	0.166 µM (active)
CCOC(=O)n1c2ccccc2c(=O)n1CCO	> 100 µM (inactive)	> 100 µM (inactive)	> 100 µM (inactive)	> 100 µM (inactive)	> 100 µM (inactive)	> 100 µM (inactive)	> 100 µM (inactive)	> 100 µM (inactive)	> 100 µM (inactive)	> 100 µM (inactive)	> 100 µM (inactive)	> 100 µM (inactive)	> 100 µM (inactive)	> 100 µM (inactive)	> 100 µM (inactive)	> 100 µM (inactive)	> 100 µM (inactive)	> 100 µM (inactive)	> 100 µM (inactive)	7.45 µM (inactive)
COc1ccccc1N1CCN(CCCCNC(=O)c2ccc([N+](=O)[O-])o2)CC1	15.1 µM (inactive)	2.42 µM (inactive)	10.4 µM (inactive)	23.6 µM (inactive)	12.5 µM (inactive)	11.7 µM (inactive)	16.7 µM (inactive)	25.1 µM (inactive)	3.27 µM (inactive)	5.18 µM (inactive)	4.52 µM (inactive)	4.97 µM (inactive)	13.7 µM (inactive)	8.22 µM (inactive)	10.6 µM (inactive)	2.74 µM (inactive)	4.76 µM (inactive)	20 µM (inactive)	11.8 µM (inactive)	14.3 µM (inactive)
C#CCCCC(=O)N(C(=O)C[S+]([O-])CC)c1ccccc1 (stereo not given)	> 100 µM (inactive)	> 100 µM (inactive)	> 100 µM (inactive)	> 100 µM (inactive)	> 100 µM (inactive)	> 100 µM (inactive)	> 100 µM (inactive)	> 100 µM (inactive)	> 100 µM (inactive)	> 100 µM (inactive)	> 100 µM (inactive)	> 100 µM (inactive)	> 100 µM (inactive)	> 100 µM (inactive)	> 100 µM (inactive)	> 100 µM (inactive)	> 100 µM (inactive)	> 100 µM (inactive)	> 100 µM (inactive)	> 100 µM (inactive)
Cn1c(-c2ccccc2)cc2c3ccsc3c3ccsc3c21	> 100 µM (inactive)	> 100 µM (inactive)	> 100 µM (inactive)	> 100 µM (inactive)	> 100 µM (inactive)	> 100 µM (inactive)	> 100 µM (inactive)	> 100 µM (inactive)	> 100 µM (inactive)	> 100 µM (inactive)	> 100 µM (inactive)	> 100 µM (inactive)	> 100 µM (inactive)	> 100 µM (inactive)	> 100 µM (inactive)	> 100 µM (inactive)	> 100 µM (inactive)	> 100 µM (inactive)	> 100 µM (inactive)	6.03 µM (inactive)

Source: ChEMBL document CHEMBL1201862, “PubChem BioAssay data set” (2004)
